Data: US20050142192A1, “Oral administration of [2-(8,9-dioxo-2,6-diazabicyclo[5.2.0]non-1(7)-en-2-yl)alkyl] phosphonic acid and derivatives” (Wyeth, priority 2003, published 2005)
Read-outs that look alike come from different tables or passages of the source.

Legend:
[1] = animal absorption study, oral bioavailability in monkeys; details: monkey, in vivo, 100 mg/kg
[2] = tested on: Caco-2 cell; assay: Caco-2 cell permeability
[3] = ascending single-dose pharmacokinetic study in healthy subjects; assay type: in vivo; details: human, plasma, intravenous, 100 mg, 100 mg 1-hour, infusion, mean ± SD
[4] = apparent n-octanol/water partition coefficient
[5] = ascending multiple-dose pharmacokinetic study in healthy subjects; assay type: in vivo; details: human, plasma, po, mean ± SD; for half-life: read-out: T½ (converted)
Experimental: A study was conducted as an ascending multiple-dose tolerance study of 2-(8,9-dioxo-2,6-diazabicyclo[5.2.0]non-1(7)-en-2-yl)ethyl]phosphonic acid with administration of 200, 400, 800, and 1600 mg oral doses in healthy subjects over a 14-day period.

[6] = ascending single-dose pharmacokinetic study in healthy subjects; assay type: in vivo, human; details: for AUC: t = 0 to ∞; for CL/F: read-out: mean oral-dose clearance (C1/F) (converted)
Experimental: A study was conducted as an ascending single-dose tolerance study with fasting administration of 500, 1000, 2000, and 4000 mg oral doses. In each cohort, 8 subjects received either placebo (2 subjects) or the prescribed dose of 2-(8,9-dioxo-2,6-diazabicyclo[5.2.0]non-1(7)-en-2-yl)ethyl]phosphonic acid (6 subjects). Subjects in the fasting 1000-mg cohort were crossed over to receive a 1000-mg postprandial dose in study period 2. Additionally, the 2000-mg dose level was repeated in a cohort of elderly subjects.

[7] = pH range of 4 to 8
[8] = animal absorption study, oral bioavailability in rats; details: rat, in vivo, 100 mg/kg
[9] = 200 mg, Multiple dose administration (day 14), 200 mg q 12 h Oral, fed
[10] = 200 mg, Single dose administration, 200 mg Oral, fasting
[11] = 400 mg, Multiple dose administration (day 14), 400 mg q 12 h Oral, fasting
[12] = 400 mg, Single dose administration, 400 mg Oral, fasting
[13] = 800 mg, Multiple dose administration (day 14), 800 mg q 12 h Oral, fasting
[14] = 800 mg, Single dose administration, 800 mg Oral, fasting
[15] = 1600 mg, Multiple dose administration (day 14), 1600 mg q 12 h Oral, fasting
[16] = 1600 mg, Single dose administration, 1600 mg Oral, fasting
[17] = 1000 mg, after standardized high-fat, high-calorie meal versus fasting
[18] = human, plasma, po, 500 mg, 500 mg Oral, fasting, single administration, healthy subjects, mean ± SD
[19] = human, plasma, po, 1000 mg, 1000 mg Oral, fasting, single administration, healthy subjects, mean ± SD
[20] = human, plasma, po, 1000 mg, 1000 mg Oral, fed (high-fat, high-calorie meal), single administration, healthy subjects, mean ± SD
[21] = human, plasma, po, 2000 mg, 2000 mg Oral, fasting (elderly), single administration, mean ± SD
[22] = human, plasma, po, 2000 mg, 2000 mg Oral, fasting, single administration, healthy adult subjects, mean ± SD
[23] = human, plasma, po, 4000 mg, 4000 mg Oral, fasting, single administration, healthy subjects, mean ± SD

For `O=c1c2c(c1=O)N(CCP(=O)(O)O)CCCN2` [[2-(8,9-dioxo-2,6-diazabicyclo[5.2.0]non-1(7)-en-2-yl)ethyl]phosphonic acid], the bioavailability [1] was about 2.5%, the Caco-2 cell permeability [2] was “poor” and the Cmax [3] was 4010 ± 512 ng/mL. It also gave an AUC ([3]; t = 0 to ∞) of 10200 ± 1720 ng·h/mL, a logP [4] of -1.37 and a Cmax [5, 9] of 153 ± 75 ng/mL. For the same compound, the Tmax [5, 9] was 1.2 ± 0.3 h, the half-life [5, 9] was 6.6 ± 3.9 h and the AUC ([5]; 200 mg, Multiple dose administration (day 14), 200 mg q 12 h Oral, fed, t = 0 to 12 hours (tau)) was 817 ± 265 ng·h/mL. For the same compound, the Cmax [5, 10] was 172 ± 90 ng/mL, the Tmax [5, 10] was 1.3 ± 0.5 h and the half-life [5, 10] was 3.5 ± 0.6 h. The AUC ([5]; 200 mg, Single dose administration, 200 mg Oral, fasting, t = 0 to ∞) was 699 ± 201 ng·h/mL, the Cmax [5, 11] was 398 ± 209 ng/mL and the Tmax [5, 11] was 1.6 ± 1.3 h. It also gave a half-life [5, 11] of 11.9 ± 10.4 h, an AUC ([5]; 400 mg, Multiple dose administration (day 14), 400 mg q 12 h Oral, fasting, t = 0 to 12 hours (tau)) of 1810 ± 747 ng·h/mL and a Cmax [5, 12] of 346 ± 282 ng/mL. For the same compound, the Tmax [5, 12] was 2 ± 1.6 h, the half-life [5, 12] was 4.5 ± 1.2 h and the AUC ([5]; 400 mg, Single dose administration, 400 mg Oral, fasting, t = 0 to ∞) was 1490 ± 371 ng·h/mL. For the same compound, the Cmax [5, 13] was 436 ± 151 ng/mL, the Tmax [5, 13] was 1.4 ± 0.6 h and the half-life [5, 13] was 16.9 ± 8.8 h. It also gave an AUC ([5]; 800 mg, Multiple dose administration (day 14), 800 mg q 12 h Oral, fasting, t = 0 to 12 hours (tau)) of 2180 ± 644 ng·h/mL, a Cmax [5, 14] of 715 ± 524 ng/mL and a Tmax [5, 14] of 1.4 ± 0.7 h. The half-life [5, 14] was 8.3 ± 1.3 h, the AUC ([5]; 800 mg, Single dose administration, 800 mg Oral, fasting, t = 0 to ∞) was 3190 ± 800 ng·h/mL and the Cmax [5, 15] was 1510 ± 842 ng/mL. The Tmax [5, 15] was 1.4 ± 1.3 h, the half-life [5, 15] was 10.5 ± 6.6 h and the AUC ([5]; 1600 mg, Multiple dose administration (day 14), 1600 mg q 12 h Oral, fasting, t = 0 to 12 hours (tau)) was 4910 ± 1210 ng·h/mL. For the same compound, the Cmax [5, 16] was 962 ± 592 ng/mL, the Tmax [5, 16] was 1.3 ± 1.3 h and the half-life [5, 16] was 6.9 ± 1.7 h. For the same compound, the AUC ([5]; 1600 mg, Single dose administration, 1600 mg Oral, fasting, t = 0 to ∞) was 4060 ± 1320 ng·h/mL, the “lowering of mean Cmax by food” value [6, 17] was 67% and the “reduction of mean AUC by food” value [6, 17] was 57%. For the same compound, the “mean oral-dose clearance (C1/F), lower in elderly than in healthy adult subjects” value ([6]; 2000 mg, fasting, single-dose) was “approximately 10%”, the Tmax ([6]; human, plasma, intravenous, 100 mg, 100 mg 1-hour, infusion, healthy subjects, mean ± SD) was 0.95 ± 0.11 h and the half-life ([6]; human, plasma, intravenous, 100 mg, 100 mg 1-hour, infusion, healthy subjects, mean ± SD, read-out: T½ (converted)) was 8.3 ± 8.8 h. The Cmax [6, 18] was 320 ± 63 ng/mL, the Tmax [6, 18] was 1.9 ± 0.7 h and the half-life ([6]; human, plasma, po, 500 mg, 500 mg Oral, fasting, single administration, healthy subjects, mean ± SD, read-out: T½ (converted)) was 6.7 ± 6.4 h. The AUC [6, 18] was 2140 ± 542 ng·h/mL, the Cmax [6, 19] was 1180 ng/mL and the Tmax [6, 19] was 0.88 h. For the same compound, the half-life ([6]; human, plasma, po, 1000 mg, 1000 mg Oral, fasting, single administration, healthy subjects, mean ± SD, read-out: T½ (converted)) was 14.6 ± 9.3 h, the AUC [6, 19] was 5130 ng·h/mL and the Cmax [6, 20] was 392 ng/mL. It also gave a Tmax [6, 20] of 2.92 h, a half-life ([6]; human, plasma, po, 1000 mg, 1000 mg Oral, fed (high-fat, high-calorie meal), single administration, healthy subjects, mean ± SD, read-out: T½ (converted)) of 16 ± 10 h and an AUC [6, 20] of 2210 ng·h/mL. For the same compound, the Cmax [6, 21] was 1610 ± 628 ng/mL, the Tmax [6, 21] was 1.25 ± 0.61 h and the half-life ([6]; human, plasma, po, 2000 mg, 2000 mg Oral, fasting (elderly), single administration, mean ± SD, read-out: T½ (converted)) was 14.1 ± 11.1 h. For the same compound, the AUC [6, 21] was 8890 ng·h/mL, the Cmax [6, 22] was 1790 ± 1360 ng/mL and the Tmax [6, 22] was 1.42 ± 0.96 h. The half-life ([6]; human, plasma, po, 2000 mg, 2000 mg Oral, fasting, single administration, healthy adult subjects, mean ± SD, read-out: T½ (converted)) was 6.4 ± 2 h, the AUC [6, 22] was 7640 ng·h/mL and the CL/F ([6]; human, plasma, po, 2000 mg, elderly subjects, 2000 mg, fasting, single-dose) was 52.3 mL/min/kg. For the same compound, the CL/F ([6]; human, plasma, po, 2000 mg, healthy adult subjects, 2000 mg, fasting, single-dose) was 58.3 mL/min/kg, the Cmax [6, 23] was 1490 ± 436 ng/mL and the Tmax [6, 23] was 2.6 ± 1.08 h. For the same compound, the half-life ([6]; human, plasma, po, 4000 mg, 4000 mg Oral, fasting, single administration, healthy subjects, mean ± SD, read-out: T½ (converted)) was 9.1 ± 4.6 h, the AUC [6, 23] was 8980 ± 1980 ng·h/mL and the half-life ([6]; human, plasma, po, all cohorts, oral, fasting, estimates not always reliable, read-out: mean t1/2) was 6 to 16 h. The bioavailability ([6]; human, plasma, subjects in the first cohort (500 mg oral, 100 mg infusion), read-out: mean absolute bioavailability) was 4.3%, the solubility [7] was “very soluble” and the bioavailability [8] was about 1%.
